From patent US7786097B2, “Tricyclic compounds, compositions and methods” (Pfizer Inc., priority 2007, dated 2010)
Where a name gives a salt, the structure may show the parent alone. Read-outs that look alike come from different tables or passages of the source.

What was measured:
[1] = biological target: T1, full-length glucocorticoid (GR) protein (Homo sapiens, UniProt P04150); experiment: Glucocorticoid receptor fluorescence polarization ligand binding (GRFP) assay
T1 construct: purchased Invitrogen
T1 sequence (P04150 1-777): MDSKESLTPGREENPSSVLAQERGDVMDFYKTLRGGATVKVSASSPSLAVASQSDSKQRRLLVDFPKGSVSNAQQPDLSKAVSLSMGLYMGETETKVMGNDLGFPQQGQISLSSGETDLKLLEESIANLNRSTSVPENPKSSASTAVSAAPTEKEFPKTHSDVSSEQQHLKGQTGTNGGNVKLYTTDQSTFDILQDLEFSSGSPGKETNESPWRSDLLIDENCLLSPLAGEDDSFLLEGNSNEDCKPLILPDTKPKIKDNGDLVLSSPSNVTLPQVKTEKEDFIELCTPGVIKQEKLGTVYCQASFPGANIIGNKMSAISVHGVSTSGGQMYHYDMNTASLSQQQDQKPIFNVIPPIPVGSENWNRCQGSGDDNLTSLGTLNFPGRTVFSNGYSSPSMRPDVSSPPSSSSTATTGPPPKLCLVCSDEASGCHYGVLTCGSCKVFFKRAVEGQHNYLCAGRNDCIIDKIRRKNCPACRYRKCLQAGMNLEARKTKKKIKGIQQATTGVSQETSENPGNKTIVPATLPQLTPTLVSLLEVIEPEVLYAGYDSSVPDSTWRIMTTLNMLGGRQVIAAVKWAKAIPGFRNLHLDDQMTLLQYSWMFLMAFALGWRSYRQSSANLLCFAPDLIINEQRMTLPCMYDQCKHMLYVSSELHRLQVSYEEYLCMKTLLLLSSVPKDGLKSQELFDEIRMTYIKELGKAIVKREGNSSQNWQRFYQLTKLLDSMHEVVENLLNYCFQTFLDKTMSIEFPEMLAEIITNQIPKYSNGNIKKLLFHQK
Excerpt: GRFP: Glucocorticoid Receptor Binding
The glucocorticoid receptor fluorescence polarization ligand binding (GRFP) assay is used to evaluate direct binding of testing compounds to full-length glucocorticoid (GR) protein. Reagents for this assay are purchased from Invitrogen in a test kit. A fluorescent labeled GR ligand is used as a fluorescent tracer and test compounds compete with the fluorescent tracer for GR binding. The change in polarization value in the presence of test compounds is due to binding of test compounds to (GR) and is used to determine IC50 and relative binding affinity of test compounds for GR.

[2] = Solubility and intrinsic dissolution; format: physicochemical; conditions: compared with Example 1
[3] = system: IL-6 levels in Human A549 lung epithelial cells; experiment: IL-1β-stimulated IL-6 in A549 cells; format: cell-based; conditions: additional results (footnote a)
Method: IL-6 IC50 and % Inhibition
Human A549 lung epithelial cells (American Type Culture Collection, Rockville, Md.) were cultured in Kaighn's F-12K medium with penicillin-streptomycin (10 U/mL) and 10% heat-inactivated fetal bovine serum (all from Invitrogen, Grand Island, N.Y.). A549 cells were plated at a density of 30,000 cells/well in 96-well plates and incubated overnight at 37° C. and with 5% CO2. The cells were serum-starved by replacing the growth medium with serum-free Kaighn's F-12K medium with penicillin-streptomycin (10 U/mL) and, again, incubating overnight at 37° C. and with 5% CO2. On the third day, the medium was replaced with fresh serum-free medium and the cells were incubated with or without compound (vehicle was DMSO at 0.1% maximum concentration) for approximately 1 hour and then stimulated with 1 ng/mL recombinant human IL-1β (R&D Systems, Minneapolis, Minn.) for 20 hours at 37° C. and with 5% CO2. Cell supernatants were collected for determination of IL-6 levels using MSD (Meso Scale Discovery, Gaithersburg, Md.) 96-well Single Spot plates as per the manufacturer's instructions. Plates were read with an MSD Sector Imager 6000. […] Vehicle was used to define the 0% inhibition control. Percent inhibition for each compound concentration, relative to these controls, was calculated using Excel (Microsoft, Redmond, Wash.). […]

[4] = system: LPS-induced serum TNFα; experiment: LPS-induced serum TNFα suppression, 28-day repeat dose mouse model; format: in vivo, Swiss Webster female mice; conditions: Mus musculus, 672 h, mice, oral gavage 28 days
Method: (§1) The compounds were weighed and suspended in a vehicle of 0.5% methylcellulose/0.025% tween 20 (Sigma-Aldrich, St. Louis, Mo.). Compound suspensions were homogenized using a Polytron PT-3100 tissue homogenizer to create a very fine suspension and were then sonicated for 10 minutes using a water bath sonicator. Aliquots of each suspension were made for daily dosing at 0.2 ml/dose. Swiss Webster female mice, 10-12 weeks old, 28-29 grams, (Taconic, Germantown, N.Y.) were used in accordance with the guidelines of the Institutional Animal Care and Use Committee and in accordance with NIH guidelines on laboratory animal welfare. Mice were acclimated in the Pfizer animal facility for three to seven days prior to being utilized in a study. […] Each treatment group contained 5-10 mice. To establish a dosing regimen for the studies, a pilot pharmacodynamic time course experiment was conducted to quantify TNFα repression after a single ED80 dose.
(§2) Body weights were measured on the first and last day of each experiment. Blood samples were obtained after three weeks of dosing for a steady-state pharmacokinetic (PK) analysis. To assess compound effects on LPS-induced TNFα, all mice received an intraperitoneal injection of LPS (Salmonella typhosa, L-7895; Sigma-Aldrich, St. Louis) 2.5 hr after the last dose on day 28. Mice were sacrificed 90 minutes after LPS administration. Serum samples were quantified for osteocalcin and TNFα using the multiplex assays (Linco Research, Inc, St. Charles, Mo.; Luminex 100, Austin, Tex.). Samples were diluted 1:20 and the assay was run according to manufacturer's instructions. The osteocalcin standard was purchased separately (Biomedical Technologies Inc., Stoughton, Mass.). Mice were fasted for 4 hours before serum was collected for TNFα, and osteocalcin levels. For each experiment, outliers were detected by calculating the number of standard deviations from the mean of the group. If the value being examined was more than 2.5 standard deviations from the mean, it was excluded from the rest of the calculations.
(§3) The individual mouse percent inhibition values were fit to a four-parameter logistic model using the dose mean for each group.
(§4) ED50 and ED80 values were obtained for the various endpoints using a four-parameter logistic fit. For compounds which were tested multiple times, ED50 and ED80 values were obtained using four-parameter logistic fits of the combined data from multiple experiments.

[5] = system: Mouse Collagen-Induced Arthritis (mCIA); experiment: Therapeutic mouse collagen-induced arthritis (mCIA) model; format: in vivo, Male DBA/J mice; conditions: Mus musculus, mice, dosing day 34 through day 49; for ED80: read-out: Therapeutic mCIA (ED80 dose)
Excerpt: Mouse Collagen-induced arthritis is a commonly used chronic, preclinical model of rheumatoid arthritis in which joint swelling and bone destruction occur following immunization with type II collagen. Reduction of disease incidence and severity has been shown previously to be predictive of disease-modification and signs and symptoms mitigation, respectively, in a clinical setting.
In the therapeutic mCIA model, induction of disease incidence and severity was synchronized via LPS stimulation. Male DBA/J mice were immunized with 100 ug of bovine type II collagen (bCII) on day 0. All mice received an intraperitoneal injection of 20 μg of LPS on day 28 and disease was allowed to develop through day 34. At day 34, all mice had disease (incidence=100%) with an average severity score of seven. Dosing of compounds was initiated in the therapeutic mode on day 34 and continued through day 49. Different treatments were compared by measuring the decrease in incidence (i.e., resolution of disease) and the decrease in severity of paw swelling over time.

[6] = system: Serum osteocalcin; experiment: Serum osteocalcin suppression, 28-day repeat dose mouse model; format: in vivo, Swiss Webster female mice; conditions: mice, oral gavage 28 days, serum osteocalcin
Method: as §1, §2, §3, §4

Row | Structure (SMILES) | IC50 [1] [nM] | IC50 ([1]; additional results (footnote a)) [nM] | solubility and intrinsic dissolution [2] | IL-6 % Inhibition [3] [%] | ED80 [4] [mg/kg] | ED80 [5] [mg/kg] | ED50 ([5]; read-out: Therapeutic mCIA (ED50 dose)) [mg/kg] | Osteocalcin Suppression (ED80 dose) [6] [mg/kg]
1 | Cc1ncccc1NC(=O)c1ccc2c(c1)CC[C@@H]1C[C@@](OP(=O)(O)O)(C(F)(F)F)CC[C@@]21Cc1ccccc1 [Example 2, (2R,4αS,10αR)-4α-benzyl-7-((2-methylpyridin-3-yl)carbamoyl)-2-(trifluoromethyl)-1,2,3,4,4α,9,10,10α-octahydrophenanthren-2-yl dihydrogen phosphate] | 79 | 42 | enhanced solubility and intrinsic dissolution | 80 | – | – | – | –
2 | Cc1ncccc1NC(=O)c1ccc2c(c1)CC[C@@H]1C[C@@](O)(CCC(F)(F)F)CC[C@@]21Cc1ccccc1 [Comparator C, (4βS,7S,8αR)-4β-benzyl-7-hydroxy-N-(2-methylpyridin-3-yl)-7-(3,3,3-trifluoropropyl)-4β,5,6,7,8,8α,9,10-octahydrophenanthrene-2-carboxamide] | 1.22 | – | – | – | 1.33 | > 10 | – | –
3 | Cc1c(NC(=O)c2ccc3c(c2)CC[C@@H]2C[C@@](O)(C(F)(F)F)CC[C@@]32Cc2ccccc2)ccc[n+]1[O-] [Comparator G] | – | – | – | – | 3.33 | 3 | 0.6 | 7.27
4 | Cc1ncccc1NC(=O)c1ccc2c(c1)CC[C@@H]1C[C@@](OC(=O)OCC(C)C)(C(F)(F)F)CC[C@@]21Cc1ccccc1 [Comparator K, (2R,4αS,10αR)-4-benzyl-7-((2-methylpyridin-3-yl)carbamoyl)-2-(trifluoromethyl)-1,2,3,4,4α,9,10,10α-octahydrophenanthren-2-yl isobutyl carbonate] | 895 | – | – | – | – | – | – | –
5 | Cc1ncccc1CNC(=O)c1ccc2c(c1)CC[C@@H]1C[C@@](O)(CCC(F)(F)F)CC[C@@]21Cc1ccccc1 [Comparator A, (4βS,7S,8αR)-4β-benzyl-7-hydroxy-N-((2-methylpyridin-3-yl)methyl)-7-(3,3,3-trifluoropropyl)-4β,5,6,7,8,8α,9,10-octahydrophenanthrene-2-carboxamide] | 7.1 | – | – | – | – | – | – | –
6 | Cc1ncccc1NC(=O)c1ccc2c(c1)[C@H](O)C[C@@H]1C[C@@](O)(C(F)(F)F)CC[C@@]21Cc1ccccc1 [Comparator F, (4βS,7R,8αR,10R)-4β-benzyl-7,10-dihydroxy-N-(2-methylpyridin-3-yl)-7-(trifluoromethyl)-4β,5,6,7,8,8α,9,10-octahydrophenanthrene-2-carboxamide] | 1.9 | – | – | – | 5.67 | > 10 | – | >10
7 | Cc1ncccc1NC(=O)c1ccc2c(c1)C(=O)C[C@@H]1C[C@@](O)(C(F)(F)F)CC[C@@]21Cc1ccccc1 [Comparator E] | 1.18 | – | – | – | 1.18 | 2.6 | – | 1.71
8 | Cc1ccncc1NC(=O)c1ccc2c(c1)CC[C@@H]1C[C@@](O)(C(F)(F)F)CC[C@@]21Cc1ccccc1 [Comparator D, (4βS,7R,8αR)-4β-benzyl-7-hydroxy-N-(4-methylpyridin-3-yl)-7-(trifluoromethyl)-4β,5,5,7,8,8α,9,10-octahydrophenanthrene-2-carboxamide] | 2.06 | – | – | – | > 20 | – | – | –
9 | Cc1ncccc1NC(=O)c1ccc2c(c1)CC[C@@H]1C[C@@](O)(C(F)(F)F)CC[C@@]21Cc1ccccc1 [Example 1 HCL salt] | 1.31 | – | – | – | – | – | – | –
10 | Cc1ncc(NC(=O)c2ccc3c(c2)CC[C@@H]2C[C@@](O)(CCC(F)(F)F)CC[C@@]32Cc2ccccc2)c(C)n1 [Comparator J] | 4.58 | – | – | – | 0.79 | > 20 | – | –
11 | Cc1cnc(NC(=O)c2ccc3c(c2)CC[C@@H]2C[C@@](O)(C(F)(F)F)CC[C@@]32Cc2ccccc2)c(C)n1 [Comparator B, (4βS,7R,8αR)-4β-benzyl-N-(3,5-dimethylpyrazin-2-yl)-7-hydroxy-7-(trifluoromethyl)-4β,5,6,7,8,8α,9,10-octahydrophenanthrene-2-carboxamide] | 0.35 | – | – | – | 2.91 | > 10 | – | >10
12 | Cc1ncccc1NC(=O)c1ccc2c(c1)CC[C@@H]1C[C@@](O)(C(F)F)CC[C@@]21Cc1ccccc1 [Comparator H, (4βS,7R,8αR)-4-benzyl-7-(difluoromethyl)-7-hydroxy-N-(2-methylpyridin-3-yl)-4β,5,6,7,8,8α,9,10 octahydrophenanthrene-2-carboxamide] | 8.03 | – | – | – | 0.72 | – | – | –
13 | Cc1ncccc1NC(=O)c1ccc2c(c1)C=C[C@@H]1C[C@@](O)(C(F)(F)F)CC[C@@]21Cc1ccccc1 [Comparator I, (4βS,7R,8αR)-4β-benzyl-7-hydroxy-N-(2-methylpyridin-3-yl)-7-(trifluoromethyl)-4β,5,6,7,8,8α-hexahydrophenanthrene-2-carboxamide] | 9.12 | – | – | – | 5.45 | > 20 | – | >20
